Results from US6274715A, “Tricyclic erythromycin derivatives” (priority 1997, dated 2001).
Values after ≈ are worked out from the molar mass of the structure shown. Like-named read-outs stand apart in the source and are kept apart here.

How the values were obtained:
Format in all cases: cell-based
[1] = system: PROVIDENCIA STUARTII CMX 640; conditions: P. stuartii CMX 640; BHI agar; unit assumed
ESCHERICHIA COLI SS = assay: In vitro antibacterial activity, MIC, BHI agar dilution; conditions: E. coli SS, unit assumed
[2] = system: STAPHYLOCOCCUS AUREUS A-5278; assay: as above; conditions: S. aureus A-5278, unit assumed
ESCHERICHIA COLI H560 = assay: as above; conditions: E. coli H560, unit assumed
[3] = system: PSEUDOMONAS AERUGINOSA K799/61; assay: as above; conditions: P. aeruginosa K799/61, unit assumed
ESCHERICHIA COLI KNK 437 = conditions: unit assumed
[4] = system: STAPHYLOCOCCUS AUREUS CMX 553; assay: In vitro antibacterial activity, MIC, BHI agar dilution
CANDIDA ALBICANS CCH 442 = assay: as above
[5] = system: PSEUDOMONAS AERUGINOSA 5007; assay: as above
[6] = system: PSEUDOMONAS AERUGINOSA BMH10; assay: as above
[7] = system: STREPTOCOCCUS BOVIS A-5169; assay: as above
[8] = system: STREPTOCOCCUS PYOGENES 930; assay: as above
PSEUDOMONAS CEPACIA 296I = assay: as above; conditions: P. cepacia 296I
[9] = system: STREPTOCOCCUS PYOGENES EES61; assay: as above; conditions: S. pyogenes EES61, unit assumed
[10] = system: PSEUDOMONAS AERUGINOSA DPHD-5263; assay: as above; conditions: P. aeruginosa DPHD-5263, unit assumed
[11] = system: PSEUDOMONAS AERUGINOSA DPHD-2862; assay: as above; conditions: P. aeruginosa DPHD-2862, unit assumed
[12] = system: STAPHYLOCOCCUS AUREUS 1775; assay: as above; conditions: S. aureus 1775, unit assumed
[13] = system: STAPHYLOCOCCUS AUREUS NCTC10649M; assay: as above; conditions: S. aureus NCTC10649M
[14] = system: STAPHYLOCOCCUS AUREUS A5177; assay: as above
[15] = system: STAPHYLOCOCCUS EPIDERMIDIS 3519; conditions: S. epidermidis 3519; BHI agar; unit assumed
[16] = system: PSEUDOMONAS AERUGINOSA K799/WT; assay: In vitro antibacterial activity, MIC, BHI agar dilution; conditions: P. aeruginosa K799/WT
[17] = system: STREPTOCOCCUS PYOGENES PIU 2548; assay: as above; conditions: S. pyogenes PIU 2548, unit assumed
[18] = system: STAPHYLOCOCCUS AUREUS CMX 642A; assay: as above; conditions: S. aureus CMX 642A, unit assumed
[19] = system: STAPHYLOCOCCUS AUREUS ATCC 6538P; assay: as above; conditions: S. aureus ATCC 6538P, 35-37° C., 20 to 24 hours
[20] = system: KLEBSIELLA PNEUMONIAE ATCC 8045; assay: as above
EN[…] ATCC 8043 = assay: as above; conditions: E. faecium ATCC 8043, unit assumed
Description: (§1) Representative compounds of the present invention were assayed in vitro for antibacterial activity as follows: Twelve petri dishes containing successive aqueous dilutions of the test compound mixed with 10 mL of sterilized Brain Heart Infusion (BHI) agar (Difco 0418-01-5) were prepared. Each plate was inoculated with 1:100 (or 1:10 for slow-growing strains, such as Micrococcus and Streptococcus) dilutions of up to 32 different microorganisms, using a Steers replicator block. The inoculated plates were incubated at 35-37° C. for 20 to 24 hours. In addition, a control plate, using BHI agar containing no test compound, was prepared and incubated at the beginning and end of each test.
(§2) An additional plate containing a compound having known susceptibility patterns for the organisms being tested and belonging to the same antibiotic class as the test compound was also prepared and incubated as a further control, as well as to provide test-to-test comparability. Erythromycin A was used for this purpose.
(§3) After incubation, each plate was visually inspected. The minimum inhibitory concentration (MIC) was defmed as the lowest concentration of drug yielding no growth, a slight haze, or sparsely isolated colonies on the inoculum spot as compared to the growth control.

STR[…] 508 = assay: as above; conditions: S. agalactiae CMX 508, unit assumed
Description: as §1, §2, §3

M[…] ATCC 4698 = assay: as above; conditions: M. luteus ATCC 4698, unit assumed
Description: as §1, §2, §3

M[…] ATCC 9341 = assay: as above
Description: as §1, §2, §3

ESCHERICHIA COLI DC-2 = assay: as above
[21] = system: ENTEROBACTER AEROGENES ATCC 13048; assay: as above
[22] = system: MYCOBACTERIUM SMEGMATIS ATCC 114; assay: as above; conditions: M. smegmatis ATCC 114, unit assumed
ESCHERICHIA COLI JUHL = conditions: E. coli JUHL; BHI agar; unit assumed
[23] = S. aureus CMX 553, unit assumed
[24] = C. albicans CCH 442, unit assumed
[25] = P. aeruginosa 5007, unit assumed
[26] = P. aeruginosa BMH10, unit assumed
[27] = K. pneumoniae ATCC 8045, unit assumed
[28] = M. luteus ATCC 9341, unit assumed

| Compound | MIC [1] [µg/mL] | MIC (ESCHERICHIA COLI SS) [µg/mL] | MIC [2] [µg/mL] | MIC (ESCHERICHIA COLI H560) [µg/mL] | MIC [3] [µg/mL] | MIC [4, 23] [µg/mL] | MIC (CANDIDA ALBICANS CCH 442; [24]) [µg/mL] | MIC [5, 25] [µg/mL] | MIC [6, 26] [µg/mL] | MIC ([7]; S. bovis A-5169, unit assumed) [µg/mL] | MIC ([8]; S. pyogenes 930, unit assumed) [µg/mL] | MIC (PSEUDOMONAS CEPACIA 296I; unit assumed) [µg/mL] | MIC [9] [µg/mL] | MIC [10] [µg/mL] | MIC [11] [µg/mL] | MIC [15] [µg/mL] | MIC [17] [µg/mL] | MIC [18] [µg/mL] | MIC (STR[…] 508) [µg/mL] | MIC (M[…] ATCC 4698) [µg/mL] | further results |
| --- | --- | --- | --- | --- | --- | --- | --- | --- | --- | --- | --- | --- | --- | --- | --- | --- | --- | --- | --- | --- | --- |
| CC[C@H]1OC(=O)[C@H](C)C(=O)[C@H](C)[C@@H](O[C@@H]2O[C@H](C)C[C@H](N(C)C)[C@H]2O)[C@](C)(OC)C[C@@H](C)C2=NC[C@@H](Cc3ccccc3)N3C(=O)O[C@@]1(C)[C@H]3[C@H]2C [Example 6] | 100 (≈ 137 µM) | 0.02 (≈ 0.0275 µM) | > 100 | 3.1 (≈ 4.26 µM) | 0.39 (≈ 0.536 µM) | 0.2 (≈ 0.275 µM) | > 100 | 100 (≈ 137 µM) | 50 (≈ 68.7 µM) | 0.01 (≈ 0.0137 µM) | > 100 | 50 (≈ 68.7 µM) | 0.02 (≈ 0.0275 µM) | 12.5 (≈ 17.2 µM) | 100 (≈ 137 µM) | 0.1 (≈ 0.137 µM) | 0.39 (≈ 0.536 µM) | 0.1 (≈ 0.137 µM) | 0.02 (≈ 0.0275 µM) | 0.1 (≈ 0.137 µM) | MIC (ESCHERICHIA COLI KNK 437): 6.2 µg/mL (≈ 8.52 µM); MIC [12]: > 100 µg/mL; MIC ([13]; unit assumed): 0.1 µg/mL (≈ 0.137 µM); MIC ([14]; S. aureus A5177): 0.05 µg/mL (≈ 0.0687 µM); MIC ([16]; unit assumed): 25 µg/mL (≈ 34.3 µM); MIC ([19]; unit assumed): 0.1 µg/mL (≈ 0.137 µM); MIC [20, 27]: 12.5 µg/mL (≈ 17.2 µM); MIC (EN[…] ATCC 8043): 0.1 µg/mL (≈ 0.137 µM); MIC (M[…] ATCC 9341; [28]): 0.02 µg/mL (≈ 0.0275 µM) |
| CC[C@H]1OC(=O)[C@H](C)C(=O)[C@H](C)[C@@H](O[C@@H]2O[C@H](C)C[C@H](N(C)C)[C@H]2O)[C@](C)(OC)C[C@@H](C)C2=NC3CN(CCCc4ccccc4)CC3N3C(=O)O[C@@]1(C)[C@H]3[C@H]2C (stereo partly shown) [Example 112] | – | – | – | 50 (≈ 62.7 µM) | 0.78 (≈ 0.979 µM) | – | – | – | – | – | – | – | – | – | – | 0.78 (≈ 0.979 µM) | 0.2 (≈ 0.251 µM) | 0.78 (≈ 0.979 µM) | 0.02 (≈ 0.0251 µM) | 0.2 (≈ 0.251 µM) | MIC (ESCHERICHIA COLI DC-2; E. coli DC-2, listed as Ex 112, unit assumed): > 100 µg/mL; MIC ([21]; E. aerogenes ATCC 13048, listed as Ex 112, unit assumed): 100 µg/mL (≈ 125 µM); MIC (ESCHERICHIA COLI KNK 437; E. coli KNK 437, BHI agar, listed as Ex 112): 100 µg/mL (≈ 125 µM); MIC ([4]; S. aureus CMX 553, listed as Ex 112, unit assumed): 0.78 µg/mL (≈ 0.979 µM); MIC (CANDIDA ALBICANS CCH 442; C. albicans CCH 442, listed as Ex 112, unit assumed): 100 µg/mL (≈ 125 µM); MIC ([5]; P. aeruginosa 5007, listed as Ex 112, unit assumed): > 100 µg/mL; MIC ([6]; P. aeruginosa BMH10, listed as Ex 112, unit assumed): 100 µg/mL (≈ 125 µM); MIC ([7]; S. bovis A-5169, listed as Ex 112, unit assumed): ≤ 0.005 µg/mL; MIC ([8]; S. pyogenes 930, listed as Ex 112, unit assumed): > 100 µg/mL; MIC (PSEUDOMONAS CEPACIA 296I; listed as Ex 112, unit assumed): 100 µg/mL (≈ 125 µM); MIC [22]: 0.39 µg/mL (≈ 0.489 µM); MIC ([13]; listed as Ex 112, unit assumed): 0.78 µg/mL (≈ 0.979 µM); MIC ([14]; S. aureus A5177, listed as Ex 112, unit assumed): 0.39 µg/mL (≈ 0.489 µM); MIC ([16]; listed as Ex 112, unit assumed): > 100 µg/mL; MIC ([19]; listed as Ex 112, unit assumed): 0.39 µg/mL (≈ 0.489 µM); MIC ([20]; K. pneumoniae ATCC 8045, listed as Ex 112, unit assumed): 100 µg/mL (≈ 125 µM); MIC (M[…] ATCC 9341; M. luteus ATCC 9341, listed as Ex 112, unit assumed): 0.1 µg/mL (≈ 0.125 µM) |
| CC[C@H]1OC(=O)[C@H](C)C(=O)[C@H](C)[C@@H](O[C@@H]2O[C@H](C)C[C@H](N(C)C)[C@H]2O)[C@](C)(OC)C[C@@H](C)C2=NC(COCc3ccccc3)C(COCc3ccccc3)N3C(=O)O[C@@]1(C)[C@H]3[C@H]2C (stereo partly shown) [Example 146] | 100 (≈ 114 µM) | 0.78 (≈ 0.888 µM) | 50 (≈ 56.9 µM) | 25 (≈ 28.5 µM) | 0.78 (≈ 0.888 µM) | 0.39 (≈ 0.444 µM) | 50 (≈ 56.9 µM) | 100 (≈ 114 µM) | 100 (≈ 114 µM) | 0.05 (≈ 0.0569 µM) | 12.5 (≈ 14.2 µM) | 25 (≈ 28.5 µM) | 0.05 (≈ 0.0569 µM) | 100 (≈ 114 µM) | 100 (≈ 114 µM) | 0.39 (≈ 0.444 µM) | 0.78 (≈ 0.888 µM) | 0.39 (≈ 0.444 µM) | 0.05 (≈ 0.0569 µM) | 0.2 (≈ 0.228 µM) | MIC (ESCHERICHIA COLI DC-2; E. coli DC-2, unit assumed): 100 µg/mL (≈ 114 µM); MIC ([21]; E. aerogenes ATCC 13048, unit assumed): > 100 µg/mL; MIC (ESCHERICHIA COLI KNK 437; E. coli KNK 437, BHI agar): 25 µg/mL (≈ 28.5 µM); MIC [22]: 0.39 µg/mL (≈ 0.444 µM); MIC [12]: 50 µg/mL (≈ 56.9 µM); MIC ([13]; unit assumed): 0.39 µg/mL (≈ 0.444 µM); MIC (ESCHERICHIA COLI JUHL): 50 µg/mL (≈ 56.9 µM); MIC ([16]; unit assumed): 100 µg/mL (≈ 114 µM); MIC ([19]; unit assumed): 0.39 µg/mL (≈ 0.444 µM); MIC [20, 27]: 100 µg/mL (≈ 114 µM); MIC (EN[…] ATCC 8043): 0.05 µg/mL (≈ 0.0569 µM); MIC (M[…] ATCC 9341; [28]): 0.05 µg/mL (≈ 0.0569 µM) |
